How the values were obtained:
[1] = tested on: recombinant FAD-GDH (rAT-FAD-GDH) derived from Aspergillus terreus; test: Thermal stabilization effect of stabilizing agents on rAT-FAD-GDH in solution (Example 9); type: physicochemical; conditions: for Residual activity ratio (%) / GLD activity value (U/ml) 50° C., 15 min: Table 10, buffer 50 mM K-PB, stabilizer at each final concentration described in Table 1; for Residual activity ratio (%): 50° C., 15 min versus 4° C.; for thermal stabilization effect on FAD-GDH (in words): rAT-FAD-GDH, 50° C. for 15 minutes, Example 9
Method: (§1) The reaction reagent (3 mL) is preliminarily heated at 37° C. for 5 minutes. The GDH solution (0.1 mL) is added and gently mixed, subsequently the change of absorbance at 600 nm is recorded for 5 minutes using the spectrophotometer controlled to 37° C. using water as the control, and the change of absorbance per one minute (ΔODTEST) is calculated from the linear portion of the record. The solvent in which GDH will be dissolved in place of the blinded GDH solution is added to the reagent mixture, and the change of absorbance (ΔODBLANK) per one minute is measured. The GDH activity is calculated from these values according to the following formula. One unit (U) in the GDH activity is defined as the amount of the enzyme which reduces […] DCPIP for one minute in the presence of 200 mM D-glucose.
Two tubes in which each stabilizing agent described in Table 1 had been added at each final concentration to 0.9 mL of this enzyme solution to make the total volume 1.0 mL were prepared.
(§2) In two tubes, one tube was stored at 4° C. and another tube was treated at 50° C. for 15 minutes. Then, the FAD-GDH activity in each tube was measured. The enzyme activity in the tube stored at 4° C. was made 100, and comparing with it, the activity value after being treated at 50° C. for 15 minutes was calculated as the residual activity ratio (%).

[2] = tested on: recombinant FAD-GDH (rAO-FAD-GDH) derived from Aspergillus oryzae; test: Thermal stabilization effect of stabilizing agents on rAO-FAD-GDH in solution (Examples 3-6); type: physicochemical; conditions: for thermal stabilization effect on FAD-GDH (in words): 50° C. for 15 minutes, Example 3
Method: Enhancement of the thermal stability referred to herein means increasing of a residual ratio (%) of the GDH enzyme kept after giving the treatment with heat at a certain temperature for a certain time period to the composition comprising the GDH enzyme. In the present invention, the activity in the sample stored at 4° C. which is nearly completely kept is made 100%, this is compared with the activity in the GDH solution after giving the treatment with heat at a certain-temperature for a certain time period, and the residual ratio of the enzyme is calculated.
In the method for measuring the activity described in the method for measuring the GDH enzyme activity described later, an activity value (a) of GDH in the solution stored at 4° C. and an activity value (b) of GDH after giving the treatment with heat at a certain temperature for a certain time period were measured, a relative value[(b)/(a)×100] when the activity value (a) was made 100 was calculated. This relative value was made the residual ratio (%). Comparing the presence with the absence of the added compound, when the residual ratio was increased by the addition of the compound, it was determined that the thermal stability was enhanced.
In the present invention, the activity of FAD-dependent GDH is measured as follows.
The reaction-reagent is made by mixing 15.6 mL of the PIPES buffer, 0.2 mL of the DCPIP solution and 4 mL of the D-glucose solution.
as §1, with “D-glucose. Activity (U/mL)=[−(ΔODTEST−ΔODBLANK)×3.0×dilution scale]/(16.3×0.1×1.0) In the above formula, 3.0 represents a liquid amount (mL) of the reaction reagent+the enzyme solution, 16.3 represents a millimolar molecular absorbance coefficient (cm^2/μmol) in the condition for measuring this enzyme, 0.1 represents the liquid amount of the enzyme solution (mL) and 1.0 represents a light path length (cm) of the cell.” for “D-glucose.”
The study was performed in accordance with the method for measuring the FAD-GDH activity in Test Example 1 described above.
First, 50 mL of an enzyme solution obtained by dissolving the recombinant FAD-GDH (rAO-FAD-GDH)-derived from Aspergillus oryzae obtained in Example 1 at about 2 U/mL in an enzyme dilution solution (50 mM potassium phosphate buffer, pH 5.5, 0.1% Triton X-100) was prepared. Two tubes in which each stabilizing agent described in Table 1 had been added at each final concentration to 0.9 mL of this enzyme solution to make the total volume 1.0 mL were prepared.
as §2, with “stored at […] and” for “stored at 4° C. and”
The method was in accordance with Example 3 described above.
The methods were in accordance with Example 3 above.

[3] = stabilizer final concentration 0.25%, rAO-FAD-GDH, pH 5.5
[4] = stabilizer final concentration 1%, rAO-FAD-GDH about 2 U/mL, 50 mM potassium phosphate buffer pH 5.5, 0.1% Triton X-100, 4° C. sample = 100

| Molecule | Residual activity ratio (%) [1] [%] | GLD activity value (U/ml) 50° C., 15 min [1] [U/ml] | Residual activity ratio (%) after treatment at 50° C., 15 min [2, 3] [%] | thermal stabilization effect on FAD-GDH (in words) [1] | thermal stabilization effect on FAD-GDH (in words) ([2]; rAO-FAD-GDH) | Residual activity ratio (%) after treatment at 50° C., 15 min [2, 4] [%] |
| --- | --- | --- | --- | --- | --- | --- |
| NC(=O)CC[C@H](N)C(=O)O [L-glutamine] | 1.7 | 0.046 | 22.6 | – | – | – |
| O=C(CO)[C@@H](O)[C@H](O)[C@H](O)CO [D-(−)-fructose] | 2.7 | 0.075 | – | high effect | high effect | 25.9 |
| Inulin | 1.8 | 0.053 | – | – | – | 24.7 |
| O=C([O-])CC(O)(CC(=O)[O-])C(=O)[O-].[Na+].[Na+].[Na+] [Trisodium citrate] | – | – | – | high effect | high effect | – |
| O=CC[C@@H](O)[C@H](O)[C@H](O)CO [2-deoxy-D-glucose] | 36.9 | 1.032 | – | high effect | high effect | 69.6 |
| N[C@@H](Cc1c[nH]cn1)C(=O)O [L-histidine] | 0.5 | 0.015 | 11.4 | – | – | – |
| N.N.O=S(=O)(O)O [Ammonium sulfate] | – | – | – | high effect | high effect | – |
| OC[C@@H](O)[C@H]1OC[C@H](O)[C@H]1O [1,4-sorbitane] | 2.5 | 0.072 | – | high effect | high effect | 26.7 |
| N[C@@H](CC(=O)[O-])C(=O)[O-].[Na+].[Na+] [Sodium L-aspartate] | 3.7 | 0.102 | – | high effect | high effect | 23.0 |
| OC[C@H]1O[C@H](OCC2O[C@@H](O)[C@H](O)[C@@H](O)[C@@H]2O)[C@H](O)[C@@H](O)[C@H]1O (stereo partly drawn) [a-D-(+)-melibiose] | 7.3 | 0.197 | – | high effect | high effect | 59.0 |

— patent US20080090278A1, “METHOD FOR ENHANCING STABILITY OF A COMPOSITION COMPRISING SOLUBLE GLUCOSE DEHYDROGENASE (GDH)” (TOYO BOSEKI KABUSHIKI KAISHA, priority 2006, published 2008)
